{"source": "patent US11180459B2", "about": "“Bacterial efflux pump inhibitors” (RUTGERS, THE STATE UNIVERSITY OF NEW JERSEY, priority 2017, dated 2021)", "key": {"[1]": {"tested_on": "Escherichia coli ATCC 25922", "test": "Standard EPI assay: clarithromycin MIC with EPI", "assay_type": "cell-based", "settings": "clarithromycin as antibiotic; E. coli ATCC 25922; EPI at 6.25 (μg)", "procedure": "(§1) MIC assays were conducted in accordance with Clinical and Laboratory Standards Institute (CLSI) guidelines for broth microdilution.\n(§2) The EPI assay for the purposes of these studies represents a MIC assay in which the MIC of the antibiotic against the bacteria is tested in the presence of an experimental efflux pump inhibitor (EPI). The highest concentration of the EPI present in the assay typically is ½ of the intrinsic MIC of the compound. If the intrinsic MIC of the EPI is greater than 100 μg/mL, the EPI assay was tested with 50 μg/mL. Using serial dilutions of the EPI, its enhancement of antibiotic activity was then evaluated. The relative EPI activity was decided by comparing the MIC of the antibiotic in the presence of the EPI compound with the intrinsic MIC of the antibiotic alone. For the evaluation of the efficacy of an EPI against bacteria that were pre-exposed to an antibiotic, the inoculum of bacteria that used was developed from a bacterial culture isolated as a single colony following exposure at ½ the MIIC of the antibiotic (so as to induce efflux pump expression), was to be used in combination with the EPI.\n(§3) In our standard EPI assay, the MIC of the test antibiotic is determined in the absence and presence of sub-inhibitory concentrations of the EPI. Initially, the sub-inhibitory concentration used was ½×MIC of the EPI. […] The MIC of levofloxacin against P. aeruginosa ATCC 27853 in the absence of EPI is 1 μg/mL. […] Similar methodology was employed to examine the synergy with Escherichia coli ATCC 25922 in the presence of varied concentrations of these EPIs using clarithromycin as the antibiotic."}, "[2]": {"tested_on": "Pseudomonas aeruginosa ATCC 27853", "test": "Standard EPI assay: levofloxacin MIC with EPI", "assay_type": "cell-based", "settings": "P. aeruginosa ATCC 27853; for Enhanced Activity in P. aeruginosa (fold enhancement of antibiotic activity / EPI concentration): levofloxacin as antibiotic, EPI at 12.5 (μg)", "procedure": "as §1, §2, §3"}, "P. aeruginosa ATCC 27853 [3]": {"tested_on": "P. aeruginosa ATCC 27853", "test": "Intrinsic MIC assay (broth microdilution)", "assay_type": "cell-based", "settings": "Pseudomonas aeruginosa", "procedure": "as §1\nThe intrinsic MIC of the experimental EPIs was tested with the method described. The 2-fold serial dilution begins with 100 μg/mL of tested compound in the first column of the 96-well plates."}, "[4]": {"tested_on": "P. aeruginosa [ATCC 27853]", "test": "Mouse septicemia model of infection", "assay_type": "in vivo, Swiss Webster female mice", "settings": "Experiment #521, cefepime 10 mg/ml b.i.d.", "procedure": "A general method for the in vivo assessment of bacterial EPIs is complicated by the fact that that both the antibiotic and the EPI need to be present for synergy to be achieved. A general method was discovered that has proven to be effective in establishing the relative efficacy of bacterial EPIs in a mouse septicemia model. The bacterial EPI is administered initially intravenously to mice with septicemia, followed 5 minutes later by the intravenous administration or oral administration of the antibiotic. A second administration of the EPI is then administered subcutaneously after an additional 5 minutes to act as a booster, followed by the final administration of the antibiotic either intravenously or orally after the second administration of the EPI. […] In a few instances, a second regiment of both EPI and antibiotic as administered on day 1 was required after 24 hours to affect cures.\nDetermination of the in vivo efficacy of bacterial efflux pump inhibitors (EPIs) can be efficiently determined using a mouse septicemia model of infection. The systemic infection is initiated by a 500 ul intraperitoneal injection of an inoculum containing bacteria (such as P. aeruginosa [ATCC 27853]) at a concentration of approximately 5×10^5 cells in 5% mucin in Swiss Webster female mice. […]"}, "P. aeruginosa ATCC 27853 [5]": {"tested_on": "P. aeruginosa ATCC 27853", "test": "Pre-exposure bacterial EPI assay (MIC against bacteria pre-exposed to 1/2 x MIC antibiotic)", "assay_type": "cell-based", "settings": "Pseudomonas aeruginosa, ATCC27853, read-out: MIC of cefepime against P. aeruginosa pre-exposed to cefepime", "description": "The principle underlying this pre-exposure is that exposure of the bacteria to sub-inhibitory concentrations of the test antibiotic will induce expression of efflux pumps, if any, and may represent the scenario in vivo more accurately."}}, "note": "Where a name gives a salt, the structure may show the parent alone. Marks after values point to notes of the source that are not given here."}
{"compound": "NCCC[C@H](N)CNC(=O)c1nc2cc(-c3ccc(F)cc3)cc(C(F)(F)F)c2[nH]1", "note": "[Example 3, (S)—N-(2,5-diaminopentyl)-5-(4-fluorophenyl)-7-(trifluoromethyl)-1H-benzo[d]imidazole-2-carboxamide Dihydrochloride]", "values": [{"measurement": "Enhanced Activity in E. coli (fold enhancement of antibiotic activity / EPI concentration)", "setting": "[1]", "result": 8, "unit": "×/6.25"}, {"measurement": "MIC of levofloxacin in the presence of EPI", "setting": "[2]; 6.25 μg/mL of Example 3", "result": 0.016, "unit": "µg/mL"}, {"measurement": "reduction of the MIC of levofloxacin relative to absence of EPI", "setting": "[2]; 6.25 μg/mL of Example 3", "result": 64, "unit": "fold"}, {"measurement": "Enhanced Activity in P. aeruginosa (fold enhancement of antibiotic activity / EPI concentration)", "setting": "[2]", "result": 64, "unit": "×/12.5"}, {"measurement": "MIC", "setting": "P. aeruginosa ATCC 27853 [3]; ATCC27853, read-out: intrinsic MIC of the EPI", "result": 25, "unit": "µg/mL"}]}
{"compound": "NC[C@H]1CN[C@H](CNC(=O)c2nc3cc(-c4ccc(F)cc4)ccc3[nH]2)C1", "note": "[Example 22, N-(((2S,4S)-4-(aminomethyl)pyrrolidin-2-yl)methyl)-5-(4-fluorophenyl)-1H-benzo[d]imidazole-2-carboxamidedihydrochloride]", "values": [{"measurement": "Enhanced Activity in E. coli (fold enhancement of antibiotic activity / EPI concentration)", "setting": "[1]", "result": 2, "unit": "×/6.25"}, {"measurement": "Enhanced Activity in P. aeruginosa (fold enhancement of antibiotic activity / EPI concentration)", "setting": "[2]", "result": 32, "unit": "×/12.5"}, {"measurement": "% Survival (72 hr) Antibiotic + EPI", "setting": "[4]; 250 ul + Example 22 2.0 mg/ml b.i.d.", "result": 75, "unit": "%"}]}
{"compound": "CO/N=C(\\C(=O)N[C@@H]1C(=O)N2C(C(=O)[O-])=C(C[N+]3(C)CCCC3)CS[C@H]12)c1csc(N)n1", "note": "[cefepime, reference compound]", "values": [{"measurement": "MIC", "setting": "P. aeruginosa ATCC 27853 [5]", "result": 16, "unit": "µg/mL"}, {"measurement": "% Survival (72 hr) Antibiotic Only", "setting": "[4]; 250 ul", "result": 25, "unit": "%*****"}]}
{"compound": "C[C@H]1COc2c(N3CCN(C)CC3)c(F)cc3c(=O)c(C(=O)O)cn1c23", "note": "[levofloxacin, reference compound]", "values": [{"measurement": "MIC", "setting": "P. aeruginosa ATCC 27853 [3]; ATCC27853, P. aeruginosa ATCC 27853, read-out: MIC of levofloxacin in the absence of EPI", "result": 1, "unit": "µg/mL"}]}
